Experimental data from US5091368A, “Biologically active compounds from blue-green algae” (Harbor Branch Oceanographic Institution, Inc., priority 1990, dated 1992).
Values after ≈ are worked out from the molar mass of the structure shown.

Key:
[1] = tested on: combined murine splenocyte suspensions from BALB/c and C57BL/6J mice; assay: Mixed lymphocyte reaction (MLR), 3H-thymidine incorporation; format: cell-based; conditions: percent of positive control (no drug)
Experimental: 1. Murine splenocyte suspensions were prepared separately from BALB/c and C57BL/6J mice. Spleens were aseptically removed and homogenized in RPMI-1640 tissue culture medium (TCM), supplemented with 10% fetal calf serum, 2% 1-glutamine, 15 mM HEPES, 1% antibiotic-antimycotic solution, and 25 μg/ml gentamicin (GIBCO). The cell concentrations were adjusted to 2.5 ×10^6 cells/ml. Aliquots of each cell population were removed to separate tubes, and the remaining two cell suspensions combined to one tube.
3. A volume of 0.2 ml of the combined splenocyte suspensions was added to triplicate test wells. Positive control wells received combined splenocyte suspensions in the absence of the test extracts/compounds. Negative control wells consisted of separate (not mixed) splenocyte suspensions cultured in the absence of the test compounds.
4. Plates were incubated in 5% CO2 at 37° C. for 86 hours.
5. A volume of 0.05 ml of ^3 H-thymidine (20 μCk/ml) was added to each well, and the plates were incubated in 5% CO2 at 37° C. for an additional 5 hours.
6. The contents of each well of the microtiter plates were harvested onto glass fiber filter strips, and the resulting filter discs placed in scintillation vials to which 2.0 ml of scintillation fluid was added.
7. The amount of incorporated ^3 H-thymidine was determined by counting the vials in a liquid scintillation counter.
8. Triplicate counts were averaged, and the data reported as a percentage of the positive control.

[2] = tested on: murine P388 leukemia cells; assay: Toxicity against murine P388 leukemia cells (MTT, 48 hour exposure); format: cell-based
Experimental: P388 cells obtained from J. Mayo, National Cancer Institute, Bethesda, Md., were maintained in Roswell Park Memorial Institute medium 1640 (RPMI-1640) supplemented with 10% horse serum. All cell lines were cultured in plastic tissue culture flasks and kept in an incubator at 37° C. in humidified air containing 5% CO2. Antibiotic-free stock cultures of P388 cells were subcultured to 10^5 cells/ml by dilution in fresh growth medium at 2-3 day intervals. The means generation time of primary cultures was 14-17 hours.
Solvent for all dilutions was methanol, which was removed from plates under vacuum. All experimental cultures were initiated in medium containing Gentamicin sulfate ([…]; Schering Corporation, Kenilworth, N.J.). […]
To quantitate the effects on cell proliferation, 75 μl of warm growth medium containing 5 mg/ml MTT was added to each well and cultures were returned to the incubator for 90 minutes. To spectophotometrically quantitate formation of reduced formazan, plates were centrifuged (900 xg, 5 minutes), culture fluids removed by aspiration, and 200 μl of acidified isopropanol (2 ml concentrated HCl/liter isopropanol) added per well. The absorbance of the resulting solutions were measured at 570 nm with a plate reader (MR700 Microplate Reader, Dynatech Laboratories, Chantilly, Va.). […]

[3] = tested on: herpes simplex virus type 1 (HSV-1), Kos strain; assay: HSV-1 plaque inhibition assay in CV-1 cells; format: cell-based; conditions: anti-HSV-1 activity
Text: (§1) The antiviral assay for herpes simplex virus type 1 (HSV-1) is a plaque inhibition assay. CV-1 cells (a fibroblast-like cell culture derived from primary African green monkey cells) are infected with the Kos strain of HSV-1 . Cytopathic effects (CPE) of the virus are prevented from rapid spread by a methylcellulose medium. Distinct areas of infected cells or plaques are distinguished from a surrounding area of viable CV-1 cells by staining the culture with neutral red which is a stain taken up by living cells. The viral dose can be quantitated by counting the number of plaques. Compounds with antiviral activity can be identified by comparing the plaque number in the drug treated cells to the HSV-1 viral control.
Twenty-four well plates (16 mm diameter per well) are seeded with 2×10^5 cells per well in 0.5 ml growth medium and incubated at 37°) C. with 5% CO2. The plates are used in 24 to 72 hours. Each well is infected with at least 25 but no more than 80 plaque forming units (PFU) of virus. Plates are incubated for 1.0 hours at 37° C. with 0.2 ml virus. […]
(§2) Discs are placed in wells containing cells, virus, and overlay medium. Plates are incubated at 37° C. for 48 hours, the second overlay medium is added at […] per well, and, after 24 hours additional incubation time, the plates are read. […]

CV-1 cells = assay: Drug cytotoxicity in the antiviral assay; format: cell-based, African green monkey; conditions: anti-HSV-1 assay; ID50 not defined in the text, TI = ID50/ED50
Text: as §1
Confluent cultures of CV-1 cells are rinsed with PBS two times and 4.0 ml trypsin solution is added to 150 cm^2 tissue sulture flask. Cells are dispersed an 10×10^6 CV-1 cells in 40 ml of growth medium are added to new 150 cm^2 flasks. The number of cells added to a cell culture flask is proportional to the area. The cell culture is confluent in 5 to 7 days for use in the antiviral assay. […]
as §2

[4] = tested on: murine splenocytes from BALB/c mice (lymphoid cells); assay: Lymphocyte viability assay (LCV), MTT; format: cell-based; conditions: percent of positive control (no drug)
Experimental: 1. Extra and compounds were similarly tested in parallel with the MLR to determine their toxic effects on lymphoid cells using the lymphocyte viability assay (LCV).
3. Murine splenocyte suspensions were prepared from BALB/c mice. Spleens were aseptically removed and homogenized in RPMI-1640 tissue culture medium (TCM), supplemented with 10% fetal calf serum, 2% 1-glutamine, 15 mM HEPES, 1% antibiotic-antimycotic solution, and 25 μg/ml gentamicin (GIBCO). The cell concentrations were adjusted to 2.5 ×10^6 cells/ml.
4. A volume of 0.2 ml of the splenocyte suspension was added to replicate test wells. Positive control wells received splenocyte suspensions in the absence of the test extracts/compounds.
5. Plates were incubated at 37° C. for 86 hours. At the end of the incubation period, a volume of 75 μl of a 2.0 mg/ml solution of MTT was added to each well, and the plates were returned to the incubator for an additional 5 hours.
6. The supernatants from each microwell were then removed, and a volume of 200 μl of isopropanol was added and the contents mixed.
7. Values were obtained by comparing the optical densities (determined at 570 and 650 nm) of wells containing the test compounds with those of wells containing cells and medium only (positive control). The results are expressed as a percentage of the positive control.
8. Replicate counts were averaged, and the data reported as a percentage of the positive control. An LCV value of less than 60% of the positive control is an indication of cytotoxicity of the test extracts/compounds for lymphoid cells.

Compound	% MLR Control ([1]; 2.5 ng/ml)	% MLR Control ([1]; 5.0 ng/ml)	% MLR Control ([1]; 10.0 ng/ml)	% MLR Control ([1]; 20.0 ng/ml)	% MLR Control ([1]; 40.0 ng/ml)	% MLR Control ([1]; 80.0 ng/ml)	% MLR Control ([1]; 160.0 ng/ml)	% MLR Control ([1]; 312.5 ng/ml)	% MLR Control ([1]; 625.0 ng/ml)	% MLR Control ([1]; 1250.0 ng/ml)	% MLR Control ([1]; 2500.0 ng/ml)	% MLR Control ([1]; 5000.0 ng/ml)	IC50 [2]	ED50 [3]	ID50 (CV-1 cells)	% LCV Control ([4]; 2.5 ng/ml)	% LCV Control ([4]; 5.0 ng/ml)	% LCV Control ([4]; 10.0 ng/ml)	% LCV Control ([4]; 20.0 ng/ml)	% LCV Control ([4]; 40.0 ng/ml)	further results
CCCC[C@@H](C)C[C@@H](C)C(=O)N(C)[C@@H](CC(C)C)C(=O)N[C@H](C(=O)N(C)[C@H](C(=O)N1C[C@@H](O)C[C@H]1C(=O)N1C(=O)C=C[C@@H]1C)C(C)C)[C@H](C)OC(C)=O [Microcolin A, microcolin A]	< 1%	< 1%	< 1%	< 1%	< 1%	< 1%	< 1%	< 1%	< 1%	< 1%	< 1%	< 1%	0.0009 mg/L (≈ 1.2 nM)	2.5 nanograms/ml	480 nanograms/ml	78%	71%	80%	82%	60%	% LCV Control ([4]; 80.0 ng/ml): 59%; % LCV Control ([4]; 160.0 ng/ml): 59%; % LCV Control ([4]; 312.5 ng/ml): 48%; % LCV Control ([4]; 625.0 ng/ml): 52%; % LCV Control ([4]; 1250.0 ng/ml): 31%; % LCV Control ([4]; 2500.0 ng/ml): 18%; % LCV Control ([4]; 5000.0 ng/ml): 3%
microcolin B	93%	87%	80%	39%	1%	< 1%	< 1%	< 1%	< 1%	< 1%	< 1%	< 1%	0.096 mg/L	146.0 nanograms/ml	1185 nanograms/ml	78%	121%	107%	105%	97%	% LCV Control ([4]; 80.0 ng/ml): 114%; % LCV Control ([4]; 160.0 ng/ml): 99%; % LCV Control ([4]; 312.5 ng/ml): 110%; % LCV Control ([4]; 625.0 ng/ml): 88%; % LCV Control ([4]; 1250.0 ng/ml): 75%; % LCV Control ([4]; 2500.0 ng/ml): 51%; % LCV Control ([4]; 5000.0 ng/ml): 29%
